System: Trypanosoma cruzi
Test: (§1) Trypanocidal activity against Trypanosoma cruzi Y strain bloodstream trypomastigotes isolated from infected in Albino Swiss mouse assessed as lysis of parasite in presence of 5 % mouse blood incubated for 24 hrs by Neubauer chamber method
Format: functional, organism-based

Structure (SMILES) | IC50 [µM]
O=C1C=C(c2ccccc2)C(=O)c2ccccc21 | 96.8
O=C1C(c2ccccc2)=CC(=O)c2c(O)cccc21 | 115
Cc1ccc(C2=CC(=O)c3ccccc3C2=O)cc1 | 185
O=C1C=C(c2ccc(F)cc2)C(=O)c2ccccc21 | > 500
O=C1C=C(c2ccc(Cl)cc2)C(=O)c2ccccc21 | > 1000
O=C1C=C(c2ccc(C(F)(F)F)cc2)C(=O)c2ccccc21 | 335
Cc1cc(C)cc(C2=CC(=O)c3ccccc3C2=O)c1 | > 500
O=C1C(c2cccc(I)c2)=CC(=O)c2c(O)cccc21 | 35.1
O=C1C=C(c2ccccc2O)C(=O)c2ccccc21 | 163
O=C1C=C(c2ccc(I)cc2)C(=O)c2ccccc21 | > 500
O=C1C=C(c2ccccc2F)C(=O)c2ccccc21 | 157
O=C1C(c2ccc(F)cc2)=CC(=O)c2c(O)cccc21 | 71.5
Cc1ccc(C2=CC(=O)c3ccccc3C2=O)c(O)c1 | 72.6
O=C1C(c2ccc(Cl)cc2)=CC(=O)c2c(O)cccc21 | > 1000
Cc1cccc(C2=CC(=O)c3c(O)cccc3C2=O)c1 | 95.4
Cc1cccc(C2=CC(=O)c3ccccc3C2=O)c1 | 105
O=C1C(c2ccc(C(F)(F)F)cc2)=CC(=O)c2c(O)cccc21 | 22.8
COc1ccc(C2=CC(=O)c3ccccc3C2=O)cc1 | 303
Cc1cc(C)cc(C2=CC(=O)c3c(O)cccc3C2=O)c1 | > 500
O=C1C(c2ccc(I)cc2)=CC(=O)c2c(O)cccc21 | > 500
Cc1ccc(C2=CC(=O)c3c(O)cccc3C2=O)cc1 | 156
Cc1ccc(C)c(C2=CC(=O)c3ccccc3C2=O)c1 | 56.5
Cc1ccc(O)c(C2=CC(=O)c3ccccc3C2=O)c1 | 99.2
CC(C)(C)c1ccc(C2=CC(=O)c3ccccc3C2=O)cc1 | 25.7
O=C1C=C(c2cccc(I)c2)C(=O)c2ccccc21 | 304

System: Trypanosoma cruzi
Test: as §1, with “Potency index, ratio of benznidazole IC50 to test compound IC50 for trypanocidal” for “Trypanocidal”
Format: functional

Structure (SMILES) | Ratio IC50
Cc1ccc(C2=CC(=O)c3ccccc3C2=O)c(O)c1 | 2.5
O=C1C(c2ccc(C(F)(F)F)cc2)=CC(=O)c2c(O)cccc21 | 4.5
Cc1ccc(C)c(C2=CC(=O)c3ccccc3C2=O)c1 | 2
CC(C)(C)c1ccc(C2=CC(=O)c3ccccc3C2=O)cc1 | 4
